From the NIST ThermoML archive (doi:10.1021/je060271a)
Several values for one entry are separate records, joined by “and”; a condition that tells them apart may be missing. Equal values may be shown once.

Conditions: Liquid, Vibrating tube method

CCCCCC(=O)OCC(COC(=O)CCCCC)(COC(=O)CCCCC)COC(=O)CCCCC [pentaerythritol tetrahexanoate]
Conditions	mass density
343.15 K, 29943 kPa	978.1 kg/m3
343.15 K, 29977 kPa	978.2 kg/m3
343.15 K, 30005 kPa	978.1 kg/m3
343.15 K, 30034 kPa	978.2 kg/m3
343.15 K, 30068 kPa	978.2 kg/m3
343.15 K, 34037 kPa	980.7 kg/m3 and 980.8 kg/m3
343.15 K, 34038 kPa	980.6 kg/m3
343.15 K, 34070 kPa	980.7 kg/m3
343.15 K, 34080 kPa	980.7 kg/m3
343.15 K, 34257 kPa	980.8 kg/m3
343.15 K, 34258 kPa	980.9 kg/m3
343.15 K, 34259 kPa	981 kg/m3 and 980.9 kg/m3
343.15 K, 34260 kPa	980.7 kg/m3 and 980.8 kg/m3
343.15 K, 34261 kPa	980.8 kg/m3
343.15 K, 34262 kPa	980.8 kg/m3 and 980.9 kg/m3
343.15 K, 34263 kPa	980.7 kg/m3
343.15 K, 34264 kPa	980.9 kg/m3 and 980.8 kg/m3
343.15 K, 34271 kPa	980.8 kg/m3
343.15 K, 34272 kPa	980.9 kg/m3
343.15 K, 34279 kPa	980.9 kg/m3 and 981 kg/m3
343.15 K, 34280 kPa	980.8 kg/m3 and 980.9 kg/m3
343.15 K, 34281 kPa	980.9 kg/m3
343.15 K, 34282 kPa	980.8 kg/m3 and 980.9 kg/m3
343.16 K, 205.2 kPa	957.2 kg/m3
343.16 K, 205.3 kPa	957.3 kg/m3
343.16 K, 205.5 kPa	957.1 kg/m3 and 957.3 kg/m3
343.16 K, 205.7 kPa	957.3 kg/m3
343.16 K, 205.9 kPa	957.3 kg/m3 and 957.2 kg/m3
343.16 K, 206 kPa	957.2 kg/m3 and 957.3 kg/m3
343.16 K, 206.2 kPa	957.2 kg/m3 and 957.3 kg/m3
343.16 K, 206.4 kPa	957.3 kg/m3 and 957.2 kg/m3
343.16 K, 206.6 kPa	957.2 kg/m3
343.16 K, 206.7 kPa	957.2 kg/m3
343.16 K, 207.1 kPa	957.3 kg/m3
343.16 K, 207.4 kPa	957.3 kg/m3 and 957.1 kg/m3
343.16 K, 207.6 kPa	957.2 kg/m3 and 957.1 kg/m3
343.16 K, 207.8 kPa	957.3 kg/m3
343.16 K, 207.9 kPa	957.3 kg/m3 and 957.2 kg/m3
343.16 K, 208 kPa	957.1 kg/m3 and 957.3 kg/m3
343.16 K, 208.1 kPa	957.2 kg/m3 and 957.3 kg/m3
343.16 K, 208.5 kPa	957.4 kg/m3 and 957.2 kg/m3 and 957.3 kg/m3
343.16 K, 208.6 kPa	957.2 kg/m3 and 957.1 kg/m3
343.16 K, 208.7 kPa	957.2 kg/m3
343.16 K, 209.9 kPa	957.1 kg/m3
343.16 K, 210 kPa	957.4 kg/m3 and 957.2 kg/m3
343.16 K, 210.2 kPa	957.4 kg/m3
343.16 K, 210.4 kPa	957.2 kg/m3
343.16 K, 210.6 kPa	957.2 kg/m3
343.16 K, 210.9 kPa	957.2 kg/m3
343.16 K, 211.1 kPa	957.3 kg/m3 and 957.2 kg/m3
343.16 K, 211.3 kPa	957.2 kg/m3 and 957.3 kg/m3
343.16 K, 211.4 kPa	957.3 kg/m3
343.16 K, 211.6 kPa	957.2 kg/m3
343.16 K, 211.8 kPa	957.2 kg/m3
343.16 K, 211.9 kPa	957.4 kg/m3 and 957.2 kg/m3 and 957.5 kg/m3
343.16 K, 212.1 kPa	957 kg/m3
343.16 K, 212.3 kPa	957.3 kg/m3
343.16 K, 212.6 kPa	957.3 kg/m3
343.16 K, 214.2 kPa	957.2 kg/m3 and 957.4 kg/m3
343.16 K, 214.4 kPa	957.2 kg/m3
343.16 K, 214.5 kPa	957.3 kg/m3
343.16 K, 214.6 kPa	957.2 kg/m3
343.16 K, 214.7 kPa	957.2 kg/m3
343.16 K, 214.9 kPa	957.3 kg/m3 and 957.2 kg/m3
343.16 K, 215.1 kPa	957.2 kg/m3
343.16 K, 215.8 kPa	957.2 kg/m3
343.16 K, 216.1 kPa	957.3 kg/m3 and 957.1 kg/m3
343.16 K, 216.3 kPa	957.3 kg/m3 and 957.4 kg/m3
343.16 K, 216.8 kPa	957.4 kg/m3
343.16 K, 217 kPa	957.3 kg/m3 and 957.2 kg/m3
343.16 K, 217.5 kPa	957.4 kg/m3 and 957.3 kg/m3
343.16 K, 217.7 kPa	957.1 kg/m3 and 957.5 kg/m3 and 957.2 kg/m3
343.16 K, 217.9 kPa	957.3 kg/m3 and 957.2 kg/m3
343.16 K, 218 kPa	957.2 kg/m3 and 957.3 kg/m3
343.16 K, 218.2 kPa	957.3 kg/m3 and 957.2 kg/m3
343.16 K, 218.6 kPa	957.3 kg/m3 and 957.2 kg/m3
343.16 K, 218.7 kPa	957.4 kg/m3
343.16 K, 219.6 kPa	957.3 kg/m3
343.16 K, 219.8 kPa	957.3 kg/m3
343.16 K, 221 kPa	957.2 kg/m3
343.16 K, 221.2 kPa	957.2 kg/m3 and 957.3 kg/m3
343.16 K, 221.3 kPa	957.3 kg/m3
343.16 K, 221.5 kPa	957.2 kg/m3
343.16 K, 221.7 kPa	957.1 kg/m3 and 957.3 kg/m3
343.16 K, 221.9 kPa	957.2 kg/m3
343.16 K, 222.1 kPa	957.3 kg/m3
343.16 K, 222.2 kPa	957.3 kg/m3 and 957.2 kg/m3
343.16 K, 222.4 kPa	957.3 kg/m3
343.16 K, 222.6 kPa	957.3 kg/m3 and 957.2 kg/m3
343.16 K, 224.6 kPa	957.2 kg/m3
343.16 K, 224.8 kPa	957.1 kg/m3
343.16 K, 225.2 kPa	957.3 kg/m3
343.16 K, 225.5 kPa	957.3 kg/m3 and 957.2 kg/m3
343.16 K, 225.7 kPa	957.2 kg/m3
343.16 K, 226 kPa	957.2 kg/m3
343.16 K, 226.2 kPa	957.2 kg/m3
343.16 K, 226.4 kPa	957.1 kg/m3
343.16 K, 226.6 kPa	957.3 kg/m3
343.16 K, 226.7 kPa	957.2 kg/m3
343.16 K, 227.3 kPa	957.3 kg/m3
343.16 K, 227.4 kPa	957.3 kg/m3
343.16 K, 227.6 kPa	957.3 kg/m3
343.16 K, 227.8 kPa	957.3 kg/m3
343.16 K, 227.9 kPa	957.2 kg/m3
343.16 K, 228 kPa	957.3 kg/m3 and 957.2 kg/m3
343.16 K, 228.1 kPa	957.4 kg/m3
343.16 K, 228.3 kPa	957.1 kg/m3 and 957.2 kg/m3
343.16 K, 228.8 kPa	957.2 kg/m3 and 957.3 kg/m3
343.16 K, 229 kPa	957.3 kg/m3
343.16 K, 229.2 kPa	957.3 kg/m3 and 957.2 kg/m3
343.16 K, 229.3 kPa	957.2 kg/m3
343.16 K, 229.7 kPa	957.1 kg/m3 and 957.3 kg/m3
343.16 K, 229.9 kPa	957.3 kg/m3
343.16 K, 230.1 kPa	957.4 kg/m3
343.16 K, 230.4 kPa	957.3 kg/m3
343.16 K, 230.6 kPa	957.2 kg/m3
343.16 K, 230.7 kPa	957.2 kg/m3
343.16 K, 230.9 kPa	957.3 kg/m3
343.16 K, 231.4 kPa	957.1 kg/m3
343.16 K, 239.3 kPa	957.2 kg/m3
343.16 K, 239.4 kPa	957.2 kg/m3
343.16 K, 239.6 kPa	957.3 kg/m3
343.16 K, 239.8 kPa	957.2 kg/m3
343.16 K, 239.9 kPa	957.3 kg/m3
343.16 K, 241.9 kPa	957.3 kg/m3
343.16 K, 246.2 kPa	957.2 kg/m3
343.16 K, 246.5 kPa	957.2 kg/m3
343.16 K, 246.9 kPa	957.2 kg/m3
343.16 K, 247.1 kPa	957.2 kg/m3
343.16 K, 247.2 kPa	957.3 kg/m3
343.16 K, 247.4 kPa	957.3 kg/m3
343.16 K, 247.6 kPa	957.2 kg/m3 and 957.3 kg/m3
343.16 K, 247.8 kPa	957.2 kg/m3 and 957.3 kg/m3
343.16 K, 247.9 kPa	957.4 kg/m3 and 957.3 kg/m3
343.16 K, 248.1 kPa	957.4 kg/m3
343.16 K, 248.3 kPa	957.3 kg/m3
343.16 K, 248.6 kPa	957.3 kg/m3
343.16 K, 248.8 kPa	957.3 kg/m3 and 957.2 kg/m3
343.16 K, 249 kPa	957.2 kg/m3
343.16 K, 249.2 kPa	957.2 kg/m3
343.16 K, 249.8 kPa	957.2 kg/m3
343.16 K, 250.4 kPa	957.2 kg/m3
343.16 K, 250.6 kPa	957.3 kg/m3
343.16 K, 250.7 kPa	957.1 kg/m3
343.16 K, 250.9 kPa	957.3 kg/m3 and 957.2 kg/m3
